Patent US20250345317A1, “New pharmaceutical compounds, methods and uses thereof” (BBIT-THERAPEUTICS, LDA., priority 2020, published 2025)

Assays:
[1] = test system: HCC1937 cells; assay: Wound healing assay (cell migration); type: cell-based, human; details: 1.9 μM
Procedure: FIG. 12 illustrates the prevention of HCC1937 cells migration by COMP. Confluent cells were treated with 1.9 μM COMP or DMSO and observed at different time-points in the wound healing assay (scale bar=50 μm and magnification=100×).
In an embodiment, COMP prevented cell migration of triple-negative breast cancer cells. The effect of COMP on the migration ability of HCC1937 cells was also studied.

[2] = test system: MDA-MB-468; assay: Growth inhibition, SRB assay, MDA-MB-468; type: cell-based, human; details: Homo sapiens, MDA-MB-468, 48 h
Description: (§1) Table 2 refers to the growth inhibitory effect of COMP, olaparib and cisplatin (CDDP) in a panel of human immortalized breast (T47D, MCF-7, MDA-MB-231, MDA-MB-468, SK-BR-3 and HCC1937), ovarian and endocervical (OCVAR, SKOV-3, […],IGROV-1 and HeLa), pancreatic (PANC-1 and MIAPACA), neuroblastoma (SHSY-5Y), lung (NCI-H460), prostate (VCaP) melanoma (A375 and SK-MEL-5) and glioblastoma (SF-208) cancer cells, immortalized normal MCF10a and HFF1 human cells, and patient-derived ovarian (PD-OVCA #1, #9, #41, #49 and #62) cancer cells. […] Data are mean±SEM (n=5).
(§2) In an embodiment, IC50 values were determined by Sulforhodamine B (SRB) or MTS [3-(4,5-dimethylthiazol-2-yl)-5-(3-carboxymethoxyphenyl)-2-(4-sulfophenyl)-2H-tetrazolium] assay in immortalized and PD-OVCA cells, respectively. Cancer cells were plated in 96-well plates and incubated for 24 hours. Cells were then exposed to serial dilutions of compounds for 48 hours. The solvent DMSO corresponding to the maximum concentration used in these assays (0.025%) was included as control. Results are the mean±S.E.M. of 3-5 independent experiments.

[3] = test system: A375; assay: Growth inhibition, SRB assay, A375; type: cell-based; details: Homo sapiens, A-375, A375, wild-type BRCA1/2, 48 hours
Description: as §1, §2

[4] = test system: SK-MEL-5; assay: Growth inhibition, SRB assay, SK-MEL-5; type: cell-based; details: Homo sapiens, SK-MEL-5, wild-type BRCA1/2, 48 hours
Description: as §1, §2

[5] = test system: MDA-MB-231, HCC1937 and IGROV-1 cells; assay: Combination with CDDP or olaparib, SRB assay; type: cell-based, human; details: single concentration of COMP with concentration range of CDDP or olaparib, 48 hours; CI<1, synergy
Procedure: FIG. 13 illustrates that COMP sensitizes triple-negative breast cancer and ovarian cancer cells to the effect of cisplatin (CDDP) and olaparib. Cells were treated with a concentration range of CDDP and olaparib alone and in combination with a single concentration of COMP (with no significant effect on cells growth) in MDA-MB-231 (FIG. 13A), HCC1937 (FIG. 13B) and IGROV-1 (FIG. 13C). Cell proliferation was measured by SRB assay after 48 hours of treatment; growth obtained with control (DMSO) was set as 100%. […] Combination index (CI) and dose-reduction index (DRI) for each combined treatment were calculated using CompuSyn software (CI<1, synergy; 1<CI<1.1, addictive effect; CI>1.1, antagonism); data were calculated using a mean value effect of six independent experiments.
In an embodiment, COMP sensitizes triple-negative breast cancer and ovarian cancer cells to the effect of CDDP and olaparib as shown by the enhancement of the growth inhibitory effect and promising synergistic effects between COMP and CDDP or olaparib (CI<1), with a noticeable reduction in the effective dose of chemotherapeutic agents (FIGS. 13A-C).

[6] = test system: SKOV-3; assay: Growth inhibition, SRB assay, SKOV-3; type: cell-based, human; details: Homo sapiens, SK-OV-3, 48 h
Description: as §1, §2

[7] = test system: PD-OVCA#9 (mutBRCA1: c. 4389C > G; mutBRCA2: c6252delT); assay: Growth inhibition, MTS assay, PD-OVCA#9; type: cell-based, human; details: Homo sapiens, PD-OVCA#9, pathogenic mutant BRCA1/2, 48 hours
Description: as §1, §2

[8] = test system: triple-negative breast cancer and ovarian cancer cells; assay: Apoptosis by flow cytometry (FITC-Annexin V/PI); type: cell-based, human; details: 6 and 12 μM, 48 hours
Procedure: Cell cycle phases were analysed by flow cytometry using propidium iodide (PI) and quantified using the FlowJo software. Apoptosis and ROS were analysed by flow cytometry using FITC-Annexin V/PI and 2′,7′-dichlorodihydrofluorescein diacetate (H2DCFDA) respectively.

[9] = test system: IGROV-1 tumors; assay: In vivo antitumor activity in xenograft mice; details: 2 mg/kg intraperitoneal, seven administrations; compared to vehicle or 50 mg/kg of olaparib
Procedure: FIG. 14 illustrates the in vivo antitumor activity of COMP. C57BL/6-Rag2−/−IL2rg−/− xenograft mice, carrying IGROV-1 cells, were treated with vehicle (control), or 2 mg/kg of COMP or 50 mg/kg of olaparib by intraperitoneal injection three times per week (seven administrations in total). The treatment was initiated when palpable tumors were established (^˜100 mm3). […] In FIGS. 14A-C, data are mean±SEM, n=13 animals.

[10] = test system: SF-208; assay: Growth inhibition, SRB assay, SF-208; type: cell-based; details: Homo sapiens, SF-208, wild-type BRCA1/2, 48 hours
Description: as §1, §2

[11] = test system: BRCA1; assay: BRCA1 cellular localization by immunofluorescence; type: cell-based, human; details: 12 μM, 48 hours; MDA-MB-231, HCC1937 and IGROV-1 cells
Procedure: FIG. 10 illustrates the effect of 12 μM COMP on (A) γH2AX expression levels and on (FIG. 10B) γH2AX and RAD51 foci formation, and BRCA1 foci formation and cellular localization after 48 hours of treatment. […] FIG. 10B are representative images generated using Fiji software (scale bar=100 μm; 400 × magnification).

[12] = test system: T47D; assay: Growth inhibition, SRB assay, T47D; type: cell-based, human; details: Homo sapiens, 48 h
Description: as §1, §2

[13] = test system: ovarian and endocervical cancer cells (OCVAR, SKOV-3, SK-BR-3, IGROV-1 and HeLa); assay: Growth inhibition, panel of ovarian and endocervical cancer cells; type: cell-based; details: Homo sapiens, range over OCVAR, 48 hours
Procedure: (§3) In an embodiment, the activity of COMP compound was tested in an array of human normal and cancer cell lines (Table 2, FIG. 2).
as §1, §2

[14] = test system: breast cancer cells (T47D, MCF-7, MDA-MB-231, MDA-MB-468, SK-BR-3 and HCC1937); assay: Growth inhibition, panel of breast cancer cells; type: cell-based; details: Homo sapiens, range over T47D, 48 hours
Procedure: as §3, §1, §2

With CC[C@H]1CN(C)C2Cc3c([nH]c4ccccc34)/C(=N/Nc3ccc(Br)cn3)C[C@@H]1[C@@H]2C(=O)OC [COMP, methyl (5R,6S,14S,E)-8-(2-(5-bromopyridin-2-yl) hydrazineylidene)-5-ethyl-3-methyl-2,3,4,5,6,7,8,9-octahydro-1H-2,6-methanoazecino [5,4-b]indole-14-carboxylate] the wound closure [1] was “significantly reduced the wound closure”, the IC50 ([2]; MDA-MB-468, BRCA1 loss of heterozigoty, 48 hours) was 4.4 ± 0.8 µM and the IC50 ([2]; MDA-MB-468, BRCA1 loss of heterozygosity, 48 hours (second Table 2)) was 4.4 µM. The IC50 [3] was 15.5 ± 0.5 µM, the IC50 [4] was 5.65 ± 0.95 µM and the “Combination index (CI) of COMP with CDDP or olaparib” value [5] was less than 1. It also gave an IC50 ([6]; SKOV-3, wild-type BRCA1/2, 48 hours) of 8.9 ± 2.5 µM, an IC50 ([6]; Skov-3, BRCA1 wild-type, 48 hours (second Table 2)) of 8.9 µM and an IC50 [7] of 5.1 ± 1 µM. For the same molecule, the “apoptotic cell death (Annexin-V-positive cells)” value [8] was “significant increase in apoptotic cell death”, the “growth of IGROV-1 tumors” value [9] was “significantly inhibited” and the IC50 [10] was 12.5 ± 0.45 µM. For the same molecule, the BRCA1 cellular localization [11] was “triggered the nucleocytoplasmic translocation of BRCA1”, the IC50 ([12]; BRCA1 wild-type, 48 hours (second Table 2)) was 11.5 µM and the IC50 ([12]; wild-type BRCA1/2, 48 hours) was 11.5 ± 3 µM. The IC50 [13] was 4.6 to 13.9 µM and the IC50 [14] was 4.4 to 12 µM.
